Values quoted from earlier work in PMC12308805, “Ultrahigh-Throughput Virtual Screening Strategies against PPI Targets: A Case Study of STAT Inhibitors” (Journal of Chemical Information and Modeling, 2025).
Numbered stars: 1 amine (or outer) side, 2 acyl side, 3 side chain; on linkers, the order of the positions; unused ones are H or OH. Square brackets hold non-standard residues; d marks the D form. Peptide text beside a SMILES is read from it. X2 = O=C([C@H](Cc1ccc(Cc2nn[nH]n2)cc1)N[*:1])[*:2]; pY = N[C@@H](Cc1ccc(OP(=O)(O)O)cc1)C(=O)O; Hyp = O=C(O)[C@@H]1C[C@@H](O)CN1

system: STAT3; settings: sheet 6QHD_actives_decoys, retrospective screening set for STAT3 SH2 domain (PDB 6QHD); decoys are presumed inactives, not tested; ref DUD-E; cited from earlier work

| Compound | Type |
| --- | --- |
| CCOC(=O)c1sc(NC(=O)CSc2nnc(CNC(=O)c3ccccc3OC)n2C)c(C(=O)OCC)c1C [Decoy843] | Inactive (Decoy) |
| Cn1c(CCCC(=O)O)nc2cc(N(CCO)CCOC(=O)CCCc3nc4cc(N(CCO)CCO)ccc4n3C)ccc21 [Decoy826] | Inactive (Decoy) |
| Cc1noc(C)c1CSc1ncccc1C(=O)O[C@H](C)C(=O)Nc1sccc1C(N)=O [Decoy904] | Inactive (Decoy) |
| CC(=O)O[C@@H]1[C@@H](O)[C@H](CO)O[C@H](O[C@@H](/C=N/c2cnc([N+](=O)[O-])s2)[C@@H](CO)O[C@H](O)/C=N/c2cnc([N+](=O)[O-])s2)[C@@H]1O [Decoy908] | Inactive (Decoy) |
| CC(O)(O)C(=O)OCC(C)(COC(=O)C(C)(O)O)C(=O)OCC(C)(COC(=O)C(C)(COC(=O)C(C)(O)O)COC(=O)C(C)(O)O)C(=O)OCCS [Decoy812] | Inactive (Decoy) |
| CC[C@H](C)[C@H](O)C(=O)O[C@H](C(=O)O[C@H](C(=O)OC[C@H](O)[C@H](O)[C@H](O)[C@H](O)CO)[C@@H](C)CC)[C@@H](C)CC [Decoy861] | Inactive (Decoy) |
| COc1cc([C@@H]2OC[C@H]3[C@@H]2CO[C@@H]3c2cc(OC)c(O[C@@H]3O[C@H](CO)[C@@H](O)[C@H](O)[C@H]3O[C@@H]3OC[C@](O)(CO)[C@H]3O)c(OC)c2)cc(OC)c1O [Decoy817] | Inactive (Decoy) |
| CCN(CC)C(=O)c1c[nH]c2ccc(S(=O)(=O)Nc3ccc4c(c3)OCCO4)cc2c1=O [Decoy907] | Inactive (Decoy) |
| Cc1cc(C)cc(NC(=O)COc2ccc(S(=O)(=O)Nc3ccc(C(=O)O)cc3)cc2[N+](=O)[O-])c1 [Decoy932] | Inactive (Decoy) |
| O=C(CCCCC(=O)Nc1ccc(S(=O)(=O)N2CCCCC2)cc1)Nc1ccc(S(=O)(=O)N2CCCCC2)cc1 [Decoy771] | Inactive (Decoy) |
| CC(=O)O[C@@H]1[C@@H](O)[C@@H](O[C@@H](C/N=C/c2c(O)ccc3ccccc23)[C@@H](CO)O[C@H](O)C/N=C/c2c(O)ccc3ccccc23)O[C@@H](CO)[C@H]1O [Decoy885] | Inactive (Decoy) |
| COc1cc(Cc2cc(OC)c(OC)cc2NS(=O)(=O)c2ccc3c(c2)NC(=O)CO3)c(NS(=O)(=O)c2ccc3c(c2)NC(=O)CO3)cc1OC [Decoy940] | Inactive (Decoy) |
| CCOC(=O)c1ccc(NC(=O)CCN2C(=O)/C(=C3\SC(=S)N(CCC(=O)Nc4ccc(C(=O)OCC)cc4)C3=O)SC2=S)cc1 [Decoy869] | Inactive (Decoy) |
| CC(=O)N[C@@H]1[C@@H](OC(C)=O)[C@H](OC(C)=O)[C@@H](COC(C)=O)O[C@H]1Sc1nnc(-c2ccccc2)n1C(C)C [Decoy955] | Inactive (Decoy) |

same assay, conditions: sheet 6QHD_actives_decoys; known STAT3 actives of the retrospective screening set; ref ChEMBL / literature; cited from earlier work

| Compound | Type (known STAT3 active) |
| --- | --- |
| CC(=O)N[C@@H](Cc1ccc(OP(=O)(O)O)cc1)C(=O)N[C@@H](CC(C)C)C(=O)N1C[C@H](O)C[C@H]1C(=O)N[C@@H](CCC(N)=O)C(=O)N[C@H](C(N)=O)[C@@H](C)O [CHEMBL372429] (Ac-[pY]L[Hyp]QT-NH2) | Active |
| CC(=O)N[C@@H](Cc1ccc(Cc2nn[nH]n2)cc1)C(=O)N[C@@H](CC(C)C)C(=O)N1CCC[C@H]1C(=O)N[C@@H](CCC(N)=O)C(=O)N[C@H](C(=O)N[C@H](C(=O)O)C(C)C)[C@@H](C)O [CHEMBL233355] (Ac-[X2]LPQTV-OH) | Active |
| CC(C)C[C@H](NC(=O)[C@H](Cc1ccc(OP(=O)(O)O)cc1)NC(=O)CCc1ccccc1)C(=O)N1C[C@H]2C[C@H]2[C@H]1C(=O)N[C@@H](CCC(N)=O)C(=O)NCc1ccccc1 [CHEMBL370763] | Active |

same assay, conditions: sheet 6QHD_actives_decoys; retrospective screening set for STAT3 SH2 domain (PDB 6QHD); […]; ref DUD-E; cited from earlier work

| Compound | Type |
| --- | --- |
| O=C(Nc1ccc([N+](=O)[O-])cc1[N+](=O)[O-])[C@@](F)(OC(F)(F)[C@@](F)(OC(F)(F)C(F)(F)C(F)(F)F)C(F)(F)F)C(F)(F)F [Decoy658] | Inactive (Decoy) |
| Cc1ccnc(NS(=O)(=O)c2ccc(NC(=O)c3cc([N+](=O)[O-])c(Cl)c([N+](=O)[O-])c3)cc2)n1 [Decoy530] | Inactive (Decoy) |
| O=c1c(C[C@H](O)CN2CCOCC2)c(O)n(C[C@H](O)CN2CCOCC2)c(=O)n1C[C@H](O)CN1CCOCC1 [Decoy680] | Inactive (Decoy) |
| COc1ccc(NS(=O)(=O)c2ccc(OC)c(NS(=O)(=O)c3ccc(C#N)cc3)c2)cc1 [Decoy542] | Inactive (Decoy) |

same assay, conditions: sheet 6QHD_actives_decoys; retrospective screening set for STAT3 SH2 domain (PDB 6QHD); decoys generated with DUD-E and presumed inactive, not tested; ref DUD-E; cited from earlier work

| Compound | Type |
| --- | --- |
| CCCCCCCCCC(=O)O[C@H]1[C@@H](O[C@@]2(CO)O[C@@H](CO)[C@@H](O)[C@H]2O)O[C@@H](CO)[C@@H](OC(=O)C(C)C)[C@@H]1OC(=O)C(C)C [Decoy419] | Inactive (Decoy) |
| CCCOc1ccc(C(=O)C2=C(O)C(=O)N(CCN3CCOCC3)[C@@H]2c2ccc(O)c(OC)c2)cc1C [Decoy564] | Inactive (Decoy) |
| CSc1ccc(S(=O)(=O)NCC(=O)OCC(=O)Nc2cccc3nsnc23)cc1[N+](=O)[O-] [Decoy445] | Inactive (Decoy) |
| COC(=O)[C@@H]1[C@H](NC(=O)[C@@H]2CCOC2)c2cc(NCC(C)(C)C)cnc2N1CCc1c[nH]c2ccccc12 [Decoy468] | Inactive (Decoy) |
| CCCCOc1ccc([C@H]2C(C(=O)c3nc4c(C)cccn4c3C)=C(O)C(=O)N2CCOC)cc1OC [Decoy346] | Inactive (Decoy) |
| CC[C@@H](c1nnnn1C(C)(C)CC)N(Cc1ccc(OC)cc1)Cc1cc2c(C)ccc(C)c2[nH]c1=O [Decoy452] | Inactive (Decoy) |
| CC(=O)Nc1ccc(S(=O)(=O)N(CCN2CCOCC2)CC(=O)N(Cc2ccc3c(c2)OCO3)Cc2ccc(C)o2)cc1 [Decoy727] | Inactive (Decoy) |
| C=C[C@H]1[C@H](O[C@H]2O[C@@H](CO)[C@@H](O)[C@@H](O)[C@H]2O)OC=C(C(=O)OC)[C@H]1CCOC(=O)c1cc(O)c(O)c(O)c1 [Decoy700] | Inactive (Decoy) |
| CC(=O)N[C@@H](C=O)C[C@@H](O[C@@H]1O[C@H](COC(C)=O)[C@H](OC(C)=O)[C@H](OC(C)=O)[C@H]1OC(C)=O)[C@H](O)[C@H](O)CO [Decoy561] | Inactive (Decoy) |
| Nc1cnn([C@@H]2O[C@@H](COC(=O)c3ccccc3)[C@H](OC(=O)c3ccccc3)[C@@H]2OC(=O)c2ccccc2)c(=O)n1 [Decoy672] | Inactive (Decoy) |
| CC[C@H](C)[C@@H](NC(=O)CNC(=O)CCc1c(C)c2cc3c(C)coc3c(C)c2oc1=O)C(=O)O [Decoy650] | Inactive (Decoy) |
| O=C(O)CN(CC(=O)O)[C@@H](CCCCNC(=S)Nc1ccc(-c2c3ccc(=O)cc-3oc3cc(O)ccc23)c(C(=O)O)c1)C(=O)O [Decoy515] | Inactive (Decoy) |
| CCCSc1nnc(/N=C(\O)CSc2nnc(N/N=C/c3c(C)nn(C(C)C)c3C)n2N)s1 [Decoy476] | Inactive (Decoy) |
| C[C@@H]1O[C@H](O[C@@H]2CC[C@]3(C)[C@H](CC[C@@H]4[C@@H]3CC[C@@]3(C)[C@@H](C5=CC(=O)OC5)CC[C@]43O)C2)C[C@H](O)[C@@H]1O[C@@H]1C[C@H](O)[C@H](O[C@H]2C[C@@H](O)[C@H](O)[C@@H](C)O2)[C@H](C)O1 [Decoy470] | Inactive (Decoy) |
| CC(=O)O[C@H]([C@@H](OC(C)=O)[C@H](OC(C)=O)C(=O)NC1CCCCCC1)[C@H](OC(C)=O)C(=O)NC1CCCCCC1 [Decoy426] | Inactive (Decoy) |
| COc1cc([C@H]2C(C(=O)c3nc4c(C)cccn4c3C)=C(O)C(=O)N2CCCN2CCOCC2)ccc1O [Decoy674] | Inactive (Decoy) |

| Compound | Type |
| --- | --- |
| O=C(NCCCN1CCOCC1)C(C(=O)NCCCN1CCOCC1)c1ncc(C(F)(F)F)cc1Cl [Decoy377] | Inactive (Decoy) |
| COc1cc(C(=O)NCc2nnc(SCC(=O)Nc3ccc(F)cc3)n2-c2cccc(C)c2)cc(OC)c1OC [Decoy628] | Inactive (Decoy) |
| COc1cc(C(=O)NCC(=O)N/N=C/c2cc(Br)ccc2OC(=O)c2ccc(C)cc2)cc(OC)c1OC [Decoy362] | Inactive (Decoy) |
| CCSc1nnc(/N=C(\O)CSc2n[nH]c(N/N=C/c3cn(C)nc3C)n2)s1 [Decoy414] | Inactive (Decoy) |
| C[C@@H]1O[C@@H](O[C@H]2[C@H](O)C[C@H](O[C@H]3[C@H](O)C[C@H](O[C@H]4CC[C@@]5(C)[C@H](CC[C@@H]6[C@@H]5CC[C@]5(C)[C@@H](C7=CC(=O)OC7)CC[C@]65O)C4)O[C@@H]3C)O[C@@H]2C)C[C@@H](O)[C@@H]1O [Decoy469] | Inactive (Decoy) |
| O=C(Nc1ccc2c(O)c(/N=N/c3ccccc3)c(S(=O)(=O)O)cc2c1)Nc1ccc2c(O)c(/N=N/c3ccccc3)c(S(=O)(=O)O)cc2c1 [Decoy486] | Inactive (Decoy) |
| CC(=O)O[C@@H]1[C@@H](O)[C@@H](O[C@@H](/C=N\C23CN4CN(CN(C4)C2)C3)[C@@H](CO)O[C@H](O)/C=N/C23CN4CN(CN(C4)C2)C3)O[C@@H](CO)[C@H]1O [Decoy408] | Inactive (Decoy) |
| COc1cc(/C=N/Nc2nc(SCC(=O)Nc3cc(F)ccc3C)n[nH]2)cc(OC)c1OC [Decoy676] | Inactive (Decoy) |
| O=C(/C=C/c1ccc(O)c2c1[C@@H](C(=O)O[C@@H](Cc1ccc(O)c(O)c1)C(=O)O)[C@H](c1ccc(O)c(O)c1)O2)O[C@H](Cc1ccc(O)c(O)c1)C(=O)O [Decoy572] | Inactive (Decoy) |
| COC(=O)[C@@H]1O[C@H](OC/C(=N/NC(N)=O)[C@@]2(O)CC[C@@H]3[C@@H]4CC[C@@H]5C[C@H](OC(C)=O)CC[C@]5(C)[C@H]4C(=O)C[C@]32C)[C@@H](OC(C)=O)[C@H](OC(C)=O)[C@H]1OC(C)=O [Decoy339] | Inactive (Decoy) |
| COc1cc(/C=N/Nc2nc(SCC(=O)Nc3ccc(C)cc3C)n[nH]2)cc(OC)c1OC [Decoy584] | Inactive (Decoy) |
| COc1cc(NC(=O)COC(=O)c2cc(OC)c(OC)cc2NC(=O)c2ccco2)cc(OC)c1 [Decoy388] | Inactive (Decoy) |
| CCOc1ccc(-n2c(CNC(=O)c3ccc(S(=O)(=O)N(C)C)cc3)nnc2SCC(=O)Nc2cccc(C)c2)cc1 [Decoy520] | Inactive (Decoy) |
| CCOC(=O)CNS(=O)(=O)c1cc(-c2nnc(Nc3ccc(OCC(=O)NC)cc3)c3ccccc23)ccc1C [Decoy401] | Inactive (Decoy) |
| CCN(CC)CCCNC(=S)N(CCN1CCOCC1)Cc1cc2cc3c(cc2[nH]c1=O)OCCO3 [Decoy416] | Inactive (Decoy) |
